Data from the NIST ThermoML archive (doi:10.1021/je500275j).
± gives the expanded uncertainty stated by the source.

Tests used:
[1] = refractive index (Na D-line) (dimensionless); conditions: 293.15 K; 101.33 kPa; Liquid; Standard Abbe refractometry
[2] = for viscosity / mass density: 100 kPa, Liquid; for viscosity: Falling or rolling sphere viscometry; for mass density: Vibrating tube method
[3] = xn = mol fraction of the nth substance listed; conditions: 100 kPa, Liquid; for viscosity: Falling or rolling sphere viscometry; for mass density: Vibrating tube method

C1CCC(C2CCCCC2)CC1 [1,1'-bicyclohexyl]
Conditions | refractive index
[1] | 1.4787 ± 0.004

[2]
Conditions | mass density [kg/m3] | viscosity [mPa·s]
293.15 K | 886.39 ± 0.15 | 4.017 ± 0.033
298.15 K | 882.79 ± 0.15 | 3.541 ± 0.029
303.15 K | 879.19 ± 0.15 | 3.145 ± 0.026
308.15 K | 875.6 ± 0.15 | 2.817 ± 0.023
313.15 K | 872.01 ± 0.15 | 2.54 ± 0.022
318.15 K | 868.43 ± 0.15 | 2.302 ± 0.02

Conditions | Normal melting temperature [°C]
[2], Crystal, DTA | 2.60 ± 6

C1CCC(C2CCCCC2)CC1 [1,1'-bicyclohexyl] + CCC1CCCCC1
[3], x1 = 1
Conditions | mass density [kg/m3] | viscosity [mPa·s]
293.15 K | 886.39 ± 0.15 | 4.017 ± 0.033
298.15 K | 882.79 ± 0.15 | 3.541 ± 0.029
303.15 K | 879.19 ± 0.15 | 3.145 ± 0.026
308.15 K | 875.6 ± 0.15 | 2.817 ± 0.023
313.15 K | 872.01 ± 0.15 | 2.54 ± 0.022
318.15 K | 868.43 ± 0.15 | 2.302 ± 0.02

CCCCC1CCCCC1 [butylcyclohexane]
Conditions | refractive index
[1] | 1.4399 ± 0.004

[2]
Conditions | mass density [kg/m3] | viscosity [mPa·s]
293.15 K | 799.6 ± 0.15 | 1.3 ± 0.014
298.15 K | 795.85 ± 0.15 | 1.198 ± 0.013
303.15 K | 792.1 ± 0.15 | 1.109 ± 0.013
308.15 K | 788.33 ± 0.15 | 1.03 ± 0.013
313.15 K | 784.56 ± 0.15 | 0.96 ± 0.012
318.15 K | 780.78 ± 0.15 | 0.898 ± 0.012

CCCCC1CCCCC1 [butylcyclohexane] + C1CCC(C2CCCCC2)CC1
[3], x2 = 0
Conditions | mass density [kg/m3] | viscosity [mPa·s]
293.15 K | 799.6 ± 0.15 | 1.3 ± 0.014
298.15 K | 795.85 ± 0.15 | 1.198 ± 0.013
303.15 K | 792.1 ± 0.15 | 1.109 ± 0.013
308.15 K | 788.33 ± 0.15 | 1.03 ± 0.013
313.15 K | 784.56 ± 0.15 | 0.96 ± 0.012
318.15 K | 780.78 ± 0.15 | 0.898 ± 0.012

CCC1CCCCC1 [ethylcyclohexane]
Conditions | refractive index
[1] | 1.4275 ± 0.004

[2]
Conditions | mass density [kg/m3] | viscosity [mPa·s]
293.15 K | 788.23 ± 0.15 | 0.851 ± 0.012
298.15 K | 784.2 ± 0.15 | 0.796 ± 0.012
303.15 K | 780.16 ± 0.15 | 0.748 ± 0.011
308.15 K | 776.11 ± 0.15 | 0.704 ± 0.011
313.15 K | 772.04 ± 0.15 | 0.665 ± 0.011
318.15 K | 767.96 ± 0.15 | 0.629 ± 0.011

CC1CCCCC1 [methylcyclohexane]
Conditions | refractive index
[1] | 1.4175 ± 0.004

[2]
Conditions | mass density [kg/m3] | viscosity [mPa·s]
293.15 K | 769.58 ± 0.15 | 0.733 ± 0.011
298.15 K | 765.23 ± 0.15 | 0.687 ± 0.011
303.15 K | 760.89 ± 0.15 | 0.645 ± 0.011
308.15 K | 756.53 ± 0.15 | 0.608 ± 0.011
313.15 K | 752.17 ± 0.16 | 0.575 ± 0.011
318.15 K | 747.78 ± 0.16 | 0.545 ± 0.011

CC1CCCCC1 [methylcyclohexane] + C1CCC(C2CCCCC2)CC1
[3], x2 = 0
Conditions | mass density [kg/m3] | viscosity [mPa·s]
293.15 K | 769.58 ± 0.15 | 0.733 ± 0.011
298.15 K | 765.23 ± 0.15 | 0.687 ± 0.011
303.15 K | 760.89 ± 0.15 | 0.645 ± 0.011
308.15 K | 756.53 ± 0.15 | 0.608 ± 0.011
313.15 K | 752.17 ± 0.16 | 0.575 ± 0.011
318.15 K | 747.78 ± 0.16 | 0.545 ± 0.011
